Data published in US8486996B2, “Aroylfuranes and aroylthiophenes” (Basilea Pharmaceutica AG, priority 2006, dated 2013).
Where two headings read alike, the source gives them in different places.

Legend:
Format in all cases: cell-based
[1] = MTS proliferation assay (72 h read-out); conditions: MRC5 cells
Protocol: (§1) B) MTS Proliferation Assay
(§2) The assay is performed in 96 well tissue culture plates. The cells (range: 1.5*10^3-10^4) are seeded out in 80 μl complete medium 24 h prior to compound treatment. The test compounds are added in 20 μl complete medium containing max 5% DMSO. The final compound concentrations in the assays are in the range of 0.001 μM-10 μM. The assay plates are incubated for 72 h at culture conditions. The MTS reagent is prepared according to the manufacturer's protocol (Promega G1111). 20 μl MTS reagent are added to each well; the assay plates are quickly spun and incubated for another 3 h at culture conditions. Subsequently, the plates are shortly shaked and absorption measured with a microplate-reader at 492 nm. The scores A, B, C and D are explained at the end of the Table.

tumor cells [2] = experiment: MTS proliferation assay (72 h read-out)
Protocol: as §1, §2

[3] = Hoechst 33342 nuclear staining (48 h read-out)
Protocol: (§3) A) Hoechst 33342 Nuclear Staining
(§4) This assay is performed in 96 well tissue culture plates. Appropriate number of cells (adherent cells: 3-5*10^3, suspension cells: 8-10*10^3) are being seeded out in 80 μl complete medium. Adherent cells are incubated for 24 h for proper spreading out before addition of test compounds while suspension cells are immediately treated with test compounds after seeding out. The test compounds are added in 20 μl complete medium containing max 5% DMSO. The final compound concentrations in the assays are in the range of 0.001 μM-10 μM. After 24 h or 48 h incubation at culture conditions, 10 μl medium containing Hoechst 33342 dye (Sigma B-2261) at 2-5 μg/ml are added to each well. The assay plates are then further incubated for 30 minutes and subsequently analyzed with a standard inverted fluorescence microscope.
(§5) The readout allows the determination of the fraction of apoptotic nuclei as well as other morphological criteria specific for apoptosis as a function of the treatment. The scores A, B, C and D are explained at the end of the Table.

tumor cells [4] = experiment: Hoechst 33342 nuclear staining (48 h read-out)
Protocol: as §3, §4, §5

[5] = Mitochondrial membrane potential, JC-1 (read-out 48 h); conditions: PBL, JC-1, 48 h
Protocol: (§6) D) Mitochondrial Membrane Potential
as §4, with “The final compound concentrations in the assays are in the range of 0.001 μM-10 μM.” left out, “JC-1 (Molecular Probes, T-3168)” for “Hoechst 33342 dye (Sigma B-2261)”, “microscope by using the FITC and TRITC filters.” for “microscope.”
(§7) The readout allows the determination of the fraction of cells which show a dissipation of the mitochondrial membrane potential strongly indicating an apoptotic cell death as a function of the treatment. The scores A, B, C and D are explained at the end of the Table.

tumor cells [6] = experiment: as above; conditions: JC-1, 48 h
Protocol: as §6
as §4, with “The final compound concentrations in the assays are in the range of 0.001 μM-10 μM.” left out, “JC-1 (Molecular Probes, T-3168)” for “Hoechst 33342 dye (Sigma B-2261)”, “microscope by using the FITC and TRITC filters.” for “microscope.”
as §7

[7] = HT1080 cells, read-out: MTS proliferation assay IC50, HT1080
[8] = HeLa cells, read-out: MTS proliferation assay IC50, HeLa
[9] = Jily cells, read-out: MTS proliferation assay IC50, Jily
[10] = MRC5 cells, read-out: Hoechst 33342 nuclear staining EC50, MRC5
[11] = PBL, read-out: Hoechst 33342 nuclear staining EC50, PBL
[12] = HeLa cells, read-out: Hoechst 33342 nuclear staining EC50, HeLa
[13] = Jily cells, read-out: Hoechst 33342 nuclear staining EC50, Jily
[14] = Jurkat cells, read-out: Hoechst 33342 nuclear staining EC50, Jurkat
[15] = HeLa cells, read-out: Mitochondrial membrane potential (read-out 48 h) HeLa
[16] = Jily cells, read-out: Mitochondrial membrane potential (read-out 48 h) Jily
[17] = Jurkat cells, read-out: Mitochondrial membrane potential (read-out 48 h) Jurkat
[18] = MCF7 cells, read-out: Mitochondrial membrane potential (read-out 48 h) MCF7
[19] = Jurkat cells, read-out: MTS proliferation assay IC50, Jurkat

Row | Structure (SMILES) | IC50 (tumor cells [2]; [7]) | IC50 (tumor cells [2]; [8]) | IC50 (tumor cells [2]; [9]) | EC50 [3, 11] | EC50 (tumor cells [4]; [12]) | EC50 (tumor cells [4]; [13]) | EC50 (tumor cells [4]; [14]) | EC50 [5] | EC50 (tumor cells [6]; [15]) | EC50 (tumor cells [6]; [16]) | EC50 (tumor cells [6]; [17]) | EC50 (tumor cells [6]; [18]) | IC50 (tumor cells [2]; [19]) | IC50 [1] | EC50 [3, 10] | further results
1 | CCOc1ccc(F)cc1C(=O)c1oc2ccc(OC)cc2c1NS(C)(=O)=O [Example 54] | 10 to 100 nM | 10 to 100 nM | 10 to 100 nM | > 1000 nM | 100 to 1000 nM | 10 to 100 nM | 10 to 100 nM | > 1000 nM | 100 to 1000 nM | 100 to 1000 nM | 10 to 100 nM | 10 to 100 nM | – | 10 to 100 nM | 100 to 1000 nM | –
2 | CCOc1ccccc1C(=O)c1oc2ccc([N+](=O)[O-])cc2c1N [Example 59] | 10 to 100 nM | 100 to 1000 nM | 10 to 100 nM | > 1000 nM | 100 to 1000 nM | 100 to 1000 nM | 10 to 100 nM | > 1000 nM | > 1000 nM | 100 to 1000 nM | 10 to 100 nM | > 1000 nM | 10 to 100 nM | 100 to 1000 nM | > 1000 nM | –
3 | CCOc1ccccc1C(=O)c1oc2ccc(Cl)cc2c1O [Example 32, 5-Chloro-2-(2-ethoxybenzoyl)-3-hydroxybenzofuran] | – | – | > 1000 nM | > 1000 nM | – | > 1000 nM | – | > 1000 nM | – | > 1000 nM | – | – | – | – | – | IC50 ([1]; Homo sapiens): > 1000 nM; IC50 (tumor cells [2]; Homo sapiens, HT-1080, HT1080 cells, read-out: MTS proliferation assay IC50, HT1080): > 1000 nM; IC50 (tumor cells [2]; Homo sapiens, HeLa cells, read-out: MTS proliferation assay IC50, HeLa): > 1000 nM; IC50 (tumor cells [2]; Homo sapiens, Jurkat cells, read-out: MTS proliferation assay IC50, Jurkat): > 1000 nM; EC50 ([3]; Homo sapiens, MRC5 cells, read-out: Hoechst 33342 nuclear staining EC50, MRC5): > 1000 nM; EC50 (tumor cells [4]; Homo sapiens, HeLa cells, read-out: Hoechst 33342 nuclear staining EC50, HeLa): > 1000 nM; EC50 (tumor cells [4]; Homo sapiens, Jurkat cells, read-out: Hoechst 33342 nuclear staining EC50, Jurkat): > 1000 nM; EC50 (tumor cells [6]; Homo sapiens, HeLa cells, read-out: Mitochondrial membrane potential (read-out 48 h) HeLa): > 1000 nM; EC50 (tumor cells [6]; Homo sapiens, Jurkat cells, read-out: Mitochondrial membrane potential (read-out 48 h) Jurkat): > 1000 nM; EC50 (tumor cells [6]; Homo sapiens, MCF7 cells, read-out: Mitochondrial membrane potential (read-out 48 h) MCF7): > 1000 nM
4 | CCOc1ccccc1C(=O)c1oc2ccc(OC)cc2c1N [Example 47] | < 10 nM | 10 to 100 nM | < 10 nM | > 1000 nM | 10 to 100 nM | < 10 nM | < 10 nM | > 1000 nM | 10 to 100 nM | 10 to 100 nM | 10 to 100 nM | > 1000 nM | < 10 nM | 10 to 100 nM | 10 to 100 nM | –
5 | CCOc1ccccc1C(=O)c1oc2ccc(NC(=O)OC(C)(C)C)cc2c1N [Example 51] | > 1000 nM | > 1000 nM | > 1000 nM | > 1000 nM | > 1000 nM | > 1000 nM | > 1000 nM | > 1000 nM | > 1000 nM | > 1000 nM | > 1000 nM | > 1000 nM | – | > 1000 nM | > 1000 nM | –

Continued, in another order:

Row | IC50 (tumor cells [2]; [7]) | IC50 (tumor cells [2]; [8]) | IC50 (tumor cells [2]; [9]) | EC50 [3, 11] | EC50 (tumor cells [4]; [12]) | EC50 (tumor cells [4]; [13]) | EC50 (tumor cells [4]; [14]) | EC50 [5] | EC50 (tumor cells [6]; [15]) | EC50 (tumor cells [6]; [16]) | EC50 (tumor cells [6]; [17]) | EC50 (tumor cells [6]; [18]) | IC50 (tumor cells [2]; [19]) | Structure (SMILES) | IC50 [1] | EC50 [3, 10] | further results
6 | 100 to 1000 nM | 100 to 1000 nM | 100 to 1000 nM | > 1000 nM | 100 to 1000 nM | 100 to 1000 nM | 100 to 1000 nM | > 1000 nM | 100 to 1000 nM | 100 to 1000 nM | 100 to 1000 nM | > 1000 nM | – | CCOc1ccc(F)cc1C(=O)c1cc2cc(Oc3ccccn3)ccc2o1 [Example 73] | 100 to 1000 nM | 100 to 1000 nM | –
7 | 10 to 100 nM | 10 to 100 nM | 10 to 100 nM | > 1000 nM | 100 to 1000 nM | 100 to 1000 nM | 100 to 1000 nM | > 1000 nM | 100 to 1000 nM | 10 to 100 nM | 10 to 100 nM | 100 to 1000 nM | 10 to 100 nM | O=C(c1cc2cc(O)ccc2o1)c1cc(F)ccc1N1CCOCC1 [Example 107] | 10 to 100 nM | 100 to 1000 nM | –
8 | 10 to 100 nM | 100 to 1000 nM | 10 to 100 nM | > 1000 nM | 100 to 1000 nM | 100 to 1000 nM | 10 to 100 nM | > 1000 nM | 100 to 1000 nM | 100 to 1000 nM | 10 to 100 nM | 100 to 1000 nM | 10 to 100 nM | CC1CN(c2ncccc2C(=O)c2oc3ccc(Cl)cc3c2N)CC(C)O1 (stereo not drawn) [Example 83] | 10 to 100 nM | 100 to 1000 nM | –
9 | 10 to 100 nM | 10 to 100 nM | 10 to 100 nM | > 1000 nM | 100 to 1000 nM | 100 to 1000 nM | 100 to 1000 nM | > 1000 nM | 100 to 1000 nM | 100 to 1000 nM | 100 to 1000 nM | 100 to 1000 nM | < 10 nM | COc1ccc2oc(C(=O)c3cccnc3N3CCCC(C)C3)cc2c1 (stereo not drawn) [Example 87] | 10 to 100 nM | 100 to 1000 nM | –
